The values below come from patent US7989495B2, “Compositions and methods for inhibiting NF-κB mediated tumorigenicity and adhesion dependent survival of cancer cells” (University of Utah Research Foundation, priority 2002, dated 2011).

“Also recorded” adds a separate entry of the source.

The test system of one assay is arthritis. The conditions noted are these: Pierce et al., 1997; cited from earlier work.
Assay [1] concerns transiently suspended DLD-1 cells. Nature of the assay: Apoptosis (annexin V) of transiently suspended cells allowed to readhere. It is filed as cell-based. The method, then: The transiently suspended cells were lysed and allowed to bind to DNA oligonucleotides, containing the NF-κB consensus binding site, that were immobilized to 96-well plates. NF-κB protein bound to the oligonucleotides was detected by an antibody to the p65 subunit that only recognized p65 that is bound to DNA. The positive control was HeLa cells that were stimulated with TNFα A control was performed using excess free NF-κB oligonucleotides (Competitor). […] NF-κB binding activity was determined by the TransAM assay as in FIG. 5A. […] The data shown represent typical results of three separate experiments. […] An immunoblot for COX-2 was performed.
(§1) Single cell suspensions were plated at 100,000 cells per well in 24-well plates in media containing DMSO, BAY 11-7082, BAY 11-7085, or MG-132 for 8-24 hours in an incubator. Alternatively, DMSO, BAY 11-7082, BAY 11-7085, or MG-132 were added to cells that were confluent and adherent for several days. The nonadherent cells were aspirated off with the media and spun for 3 minutes at 2,000 rpm in 15 ml polypropylene tubes. The adherent cells were washed twice with PBS, dispersed in trypsin, and spun down for 3 minutes at 2,000 rpm in 15 ml polypropylene tubes. The nonadherent and adherent cells were resuspended in 1× binding buffer (10 mM HEPES/NaOH, pH 7.4, 140 mM NaCl, and 2.5 mM CaCl2) to a final concentration of 10^6 cells/ml. 100 μl of the cell solution were transferred to a 5 ml culture tube and incubated with 5 μl of annexin V-FITC-conjugated monoclonal antibody (Pharmingen) and 10 μl of propidium iodide (from a 50 μg/ml stock solution made in PBS) in the dark at 25° C. for 15 minutes. 400 μl of binding buffer was added to each tube and the cells were analyzed by flow cytometry immediately. The percent of apoptosis was determined as the percent of annexin V-positive, propidium iodide-negative cells of the total cells counted.
Since trypsin can activate protease-activated receptor-2 in colon cancer cell lines, which then results in increased cell proliferation, (Darmoul et al., 2001) NF-κB activation was determined in adherent and confluent DLD-1, HCT-116, Caco-2 and HT-29 cells that were removed from plastic dishes by trypsin or scraping. […] To determine whether the transient activation of NF-κB caused by cell readhesion would render all of the colon cancer cells tested more susceptible to BAY 11-7085-induced apoptosis, DLD-1, HCT-116, Caco-2 and HT-29 colon cancer cell lines were transiently suspended, treated with BAY 11-7085 and allowed to readhere.

Another assay relates to IκB phosphorylation. The settings on record: Pierce et al., 1997; cited from earlier work.
The next assay has as its system adherent HT-29 cells. Nature of the assay: Apoptosis assay (annexin V-FITC / propidium iodide flow cytometry), adherent cells. It is filed as cell-based. The settings on record: for level of apoptosis (annexin V-positive, propidium iodide-negative cells): doses up to 20 μM (MG-132 20 μM), 24 hours. The method, then: The data points represent the average percent of annexin V-positive, propidium iodide-negative cells (of the total cells counted) from triplicate experiments. The error bars represent the standard error of the means. […] The results shown are a graphic representation of individual flow cytometry results expressed as the percentage of cells that were annexin V-positive of those that excluded propidium iodide. […] An immunoblot of the lysates for cleaved PARP was performed. Each lane represents equal total protein concentrations. […] The cells were allowed to adhere to plastic dishes for 1 hour after which they were washed gently in PBS and stained with crystal violet. The crystal violet stained cells were solubilized in deoxycholate and the absorbance detected in a spectrophotometer at 590 nm. The adherent cells were expressed as a fraction of the controls Each data point represents the average of triplicate experiments and the error bars the standard errors of the means.
as §1

The subject of assay [2] is DLD-1 colon cancer cell line. Nature of the assay: Cell proliferation assay (crystal violet, 590 nm). It is filed as cell-based. As for the experimental part: (§2) DLD-1, HCT-116, and HT-29 colon cancer cell lines were obtained from the ATCC collection and were cultured in Dulbecco's Modification of Eagle's Medium supplemented with 10% fetal bovine serum, glutamine, penicillin, and streptomycin. 293 cells stably transfected with COX-2 (293-COX-2) under the control of a ponasterone sensitive promoter were cultured in Dulbecco's Modification of Eagle's Medium supplemented with 10% fetal bovine serum, 400 μg/ml of zeocin, 400 μg/ml of G418, glutamine, penicillin, and streptomycin. For induction of COX-2 protein expression, 293-COX-2 cells were cultured for 48 hours in media supplemented with 1 μg/ml of ponasterone. All cells were cultured at 37° C. in a humidified incubator with a 5% CO2 atmosphere.
(§3) For the cell proliferation assay, cells were dispersed and plated at 40,000 cells/well in 96-well dishes. At various days in culture, the cells were gently washed twice with 100 μl/well of ice-cold blocking buffer (1% radioimmunoassay grade BSA in PBS) and twice with 100 μl/well of ice-cold PBS. The cells were fixed for 10 min in 100% ice-cold methanol (100 μl/well), then allowed to air-dry. The cells were stained with 100μl/well of 0.1% crystal violet in H2O for 10 minutes, then washed gently four times with dd H20 and four times with PBS. The plates were then air-dried completely. The stained cells were then solubilized in 1% sodium deoxycholate, and the plates read at 590 nm in a spectrophotometer. The absorption at 590 nm is proportional to the number of attached cells.

Assay [3] concerns HCT-116 colon cancer cell line. Nature of the assay: Cell proliferation assay (crystal violet, 590 nm). Type of assay: cell-based. As for the experimental part: as §2, §3
Where [4] appears, read: summary statement, concentration not given.
Where [5] appears, read: HT-29, increasing concentrations, 8 hours, 24 h.

Regarding `Cc1ccc(S(=O)(=O)/C=C/C#N)cc1` [BAY 11-7082, (2E)-3-(tolysulfonyl)-2-propenenitrile], the “effect on NF-κB and arthritis in rodent models” value with arthritis was “inhibit NF-κB and arthritis in rodent models”. For the same compound, in assay [1], the “share of transiently suspended, readhering cells that became apoptotic” value is listed as “vast majority”. The “effect on IκB phosphorylation” value with IκB phosphorylation is listed as “inhibit”. The “level of apoptosis (annexin V-positive, propidium iodide-negative cells)” value in the assay on adherent HT-29 cells (adherent HT-29) is recorded as “caused an increase in the level of apoptosis”. Further, the “inhibition of growth of cancer cell line” value in assay [2] (setting [4]) and in assay [3] (setting [4]) was “inhibits growth” in each case.

Consider `CC(C)(C)c1ccc(S(=O)(=O)/C=C/C#N)cc1` [BAY 11-7085, (2E)-3-[4-(tertiarybutylphenyl)sulfonyl]-2-propenenitrile], for which the “effect on NF-κB and arthritis in rodent models” value in the assay with arthritis is “inhibit NF-κB and arthritis in rodent models”. Besides, in assay [1], the “in vitro apoptotic threshold during readhesion” value was above 20 µM and the “share of transiently suspended, readhering cells that became apoptotic” value is “vast majority”. For the same compound, the “BAY 11-7085-induced apoptosis during readhesion” value in assay [1] (transiently suspended, treated, allowed to readhere 8 hours) was “showed the same propensity for BAY 11-7085-induced apoptosis”. Further, the “effect on IκB phosphorylation” value in the assay with IκB phosphorylation is reported as “inhibit”. For the same compound, the “percentage of apoptosis in the non-adherent cell fraction at high vs lower concentrations” value in the assay on adherent HT-29 cells (HT-29, 50 and 100 μM, cells annexin V and propidium iodide positive (necrotic)) is “decreased”. For the same compound, in the assay on adherent HT-29 cells (setting [5]), the “percentage of apoptotic cells among cells that became non-adherent” value is on record as “majority; also recorded: predominantly apoptotic” and the “percentage of apoptotic cells among cells that remained adherent” value was “only a minority”. Also, in the assay on adherent HT-29 cells (adherent HT-29), the “level of apoptosis (annexin V-positive, propidium iodide-negative cells)” value is given as “relatively greater for MG-132 than BAY 11-7085; also recorded: caused an increase in the level of apoptosis”. The “apoptosis of adherent cell monolayers compared with transiently suspended cells” value in the assay with adherent HT-29 cells (adherent HT-29, even the highest doses (10-100 μM)) is listed as “only a relatively small degree of apoptosis”. In assay [2] (10 μM, cultured 8 days), the “inhibition of cell proliferation” value is “greatly inhibited cell proliferation”. Moreover, the “inhibition of cell proliferation” value in assay [3] (10 μM, cultured 8 days) is “greatly inhibited cell proliferation”.
